This is an account of results in US20240400579A1, “SPIROCYCLIC MODULATORS OF CHOLESTEROL BIOSYNTHESIS AND THEIR USE FOR PROMOTING REMYELINATION” (GENENTECH, INC., priority 2021, published 2024).

The target of one experiment is human EBP (Homo sapiens (Human), UniProt Q15125). The experiment is described as follows: Competition binding assay (SPA) to determine compound affinity to EBP. Conditions: read-out: hEBP SPA Ki. The protocol: Membrane preparation: To examine compound binding affinity to EBP, human EBP was overexpressed in human embryonic kidney 293 cells. Cell pellet was lysed in 10 times weight binding buffer (50 mM Tris, 5 mM MgCl2, 0.1 mM EDTA, 1× protease inhibitor cocktail, pH 7.5) on ice by using a dounce homogenizer. The solution was centrifuged at 25,000 g for 50 min at 4° C. The membrane pellet was re-suspended in binding buffer and run through a 25 5/8 gauge needle. After checking the concentration by Bradford assay, the whole cell membrane solution was adjusted to 20 mg/mL and stored at −80° C.
Sequence of human EBP (Q15125 whole entry): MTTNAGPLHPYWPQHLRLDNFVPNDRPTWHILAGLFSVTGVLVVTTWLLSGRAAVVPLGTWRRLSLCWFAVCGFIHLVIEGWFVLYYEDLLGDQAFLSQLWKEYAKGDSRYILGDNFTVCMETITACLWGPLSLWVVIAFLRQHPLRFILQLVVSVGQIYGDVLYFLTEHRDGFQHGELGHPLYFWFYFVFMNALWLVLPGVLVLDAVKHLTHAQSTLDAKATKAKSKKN
This binding solution was centrifuged at 400 g for 5 minutes to collect the bead/membrane mixture. After re-suspending the pellet in binding buffer at the same calculated volume with 0.01% BSA (Sigma A1933), the bead/membrane mixture was added in 384-well low-binding surface plate (PerkinElmer Cat #6057480) at 25 i/well. Radioligand at different concentrations with and without the non-radio-labeled same ligand 5 uM (for nonspecific and total signal, respectively) was added to bring final volume to 50 i/well with DMSO concentration at 0.1%. At equilibrium (3 hours after ligand addition), radiometric signal CPM was counted by using a Microbeta2 microplate counter (Perkinelmer).
Competition binding assay to determine compound affinity: The same conditions of the radioligand Kd study were used for compound single dose percentage inhibition and equilibrium dissociation constant Ki examinations, except 50 nL compound DMSO stock was pre-added in 384-well low-binding surface plate (PerkinElmer Cat #6057480) by Echo 550 (Labcyte) to reach the final concentration for single dose test at 1 uM, and dose response test from 0.06 nM to 5 uM (8 dose, 5 times dilution). A pre-incubated bead/membrane mixture was added in compound plate at 0.3 mg beads and […] membrane per well. […] At equilibrium (3 hours after ligand addition), radiometric signal was counted as described above. The percentage inhibition of compound at each testing concentration was calculated by normalizing each condition's CPM readout to full block (5 uM non-radiolabeled ligand) and non-block (DMSO) control conditions. Compound binding inhibition IC50 was determined by nonlinear regression fitting of percentage inhibition plot against compound concentration. Compound Ki was calculated from the equation Ki=IC50/(1+[L]/Kd), which [L] was radioligand concentration used in assay. All tests had N bigger or equal to 2.

The subject of experiment [1] is zymostenol accumulation in EpiSC-derived OPCs (EBP). Kind of experiment: GC/MS-based sterol profiling, zymostenol accumulation. Conditions: Mus musculus, 24 h, 8 doses from 0.15 nM to 333 nM, read-out: mZymo GCMS EC50. Format: cell-based, mouse. The essentials: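 EpiSC-derived mouse OPCs plated at 100,000 cells/well in N2B27 without growth factors and treated 24 h. Sterols extracted, silylated with BSTFA and measured by GC/MS (EI, full scan), quantified against cholesterol-d7. Zymostenol normalized to levels after 24 h with 100 nM positive control reference.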

The next experiment concerns EpiSC-derived OPCs. Kind of experiment: In vitro phenotypic screening of OPCs, MBP high-content imaging. The experiment is classed as cell-based, mouse. Conditions: Mus musculus, 72 h, percentage of MBP+ oligodendrocytes; 3 days; 0.5 nM to 1000 nM; read-out: mOPC EC50. The gist of the method: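 Mouse EpiSC-derived OPCs seeded without growth factors and exposed 3 days at 37° C. to 8-point doses, 1000 nM to 0.5 nM final. Fixed cells stained for MBP and DAPI; high-content imaging gave percentage MBP+ oligodendrocytes, with EC50 from Hill-equation fit.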

The mark [2] stands for this setting: radioligand [3H]-Ifenprodil 10 nM, Ki=IC50/(1+[L]/Kd), HEK293 membrane.

Read-outs that look alike come from different tables or passages of the source.

In the case of `CCC(C)(C)c1ccc(CC(C)CN2CCC3(C2)CS(=O)(=O)C3)cc1` (racemic) [Compound 107, 6-(2-Methyl-3-(4-(tert-pentyl)phenyl)propyl)-2-thia-6-azaspiro[3.4]octane 2,2-dioxide], on human EBP (setting [2]), the Ki amounted to 23 nM. Also, the EC50 in experiment [1] was 9.5 nM; with EpiSC-derived OPCs it was 22 nM.

As for `CC(Cc1ccc(C2CCC2)cc1)CN1CCC2(C1)CS(=O)(=O)C2` (racemic) [Compound 109A, 6-(3-(4-cyclobutylphenyl)-2-methylpropyl)-2-thia-6-azaspiro[3.4]octane 2,2-dioxide], the Ki on human EBP (setting [2]) worked out at 32 nM. Moreover, the EC50 is 1.6 nM in experiment [1] and 1.8 nM in the experiment on EpiSC-derived OPCs.

`COC(Cc1ccc(C(F)(F)F)cc1)CN1CCC2(C1)CS(=O)(=O)C2` (racemic) [Example 143, (S)-6-(2-Methoxy-3-(4-(trifluoromethyl)phenyl)propyl)-2-thia-6-azaspiro[3.4]octane 2,2-dioxide and (R)-6-(2-methoxy-3-(4-(trifluoromethyl)phenyl)propyl)-2-thia-6-azaspiro[3.4]octane 2,2-dioxide]: at human EBP (setting [2]), the Ki was found to be 27 nM. For the same compound, the EC50 in experiment [1] amounted to 2.8 nM; in the experiment on EpiSC-derived OPCs, 26 nM.

With `C[C@@H](Cc1ccc(C(F)(F)F)cc1)CN1CCC2(C1)CS(=O)(=O)C2` (single isomer, unassigned) [114A*], at human EBP (setting [2]), the Ki came out at 35 nM. Moreover, the EC50 in experiment [1] came out at 0.37 nM; with EpiSC-derived OPCs, 2.4 nM.

Take `C[C@H](Cc1ccc(C(F)(F)F)cc1)CN1CCC2(C1)CS(=O)(=O)C2` (single isomer, unassigned) [114B*]: the inhibition constant (Ki) on human EBP (setting [2]) came out at 34 nM. Moreover, the EC50 in experiment [1] amounted to 0.82 nM; in the experiment on EpiSC-derived OPCs it was 0.72 nM.

Take `C[C@@H](Cc1ccc(C(F)(F)F)nc1)CN1CCC2(C1)CS(=O)(=O)C2` (single isomer, unassigned) [118A*]: the Ki at human EBP (setting [2]) stood at 26 nM. For the same compound, the 50% effective concentration (EC50) in experiment [1] was determined as 2.4 nM; with EpiSC-derived OPCs it was 8.5 nM.

On to `C[C@@H](Cc1cnc(C(F)(F)F)nc1)CN1CCC2(CC1)CS(=O)(=O)C2` (single isomer, unassigned) [215A*], for which the inhibition constant (Ki) on human EBP (setting [2]) came out at 21 nM. The EC50 in experiment [1] is 13 nM; in the experiment with EpiSC-derived OPCs it was 23 nM.

As to `C[C@H](Cc1cnc(C(F)(F)F)nc1)CN1CCC2(CC1)CS(=O)(=O)C2` (single isomer, unassigned) [215B*], at human EBP (setting [2]), the inhibition constant (Ki) came to 25 nM. Moreover, the figures for the concentration for a half-maximal effect (EC50) (in experiment [1]; in the experiment with EpiSC-derived OPCs) were 17 nM and 51 nM, respectively.

For `C[C@@H](CN1CCC2(CC1)CS(=O)(=O)C2)Oc1ccc(F)c(F)c1` (single isomer, unassigned) [221A*], the inhibitory constant (Ki) on human EBP is 10 nM. The EC50 in experiment [1] stood at 1.6 nM; in the experiment on EpiSC-derived OPCs, 4.9 nM.

As to `O=S1(=O)CC2(CCN(CC[C@H](F)c3ccc(C(F)(F)F)cc3)C2)C1` (single isomer, unassigned) [Compound 122B], the inhibition constant (Ki) at human EBP (setting [2]) is 18 nM. In addition, the EC50 was 1.2 nM in experiment [1] and 2.1 nM in the experiment with EpiSC-derived OPCs.

As for `C[C@@H](Cc1ccnc(C(F)(F)F)c1)CN1CCC2(C1)CS(=O)(=O)C2` (single isomer, unassigned) [Compound 126A], the inhibition constant (Ki) on human EBP (setting [2]) is 30 nM. Besides, the EC50 in experiment [1] stood at 3.8 nM; in the experiment with EpiSC-derived OPCs it was 10 nM.

On to `C[C@H](Cc1ccnc(C(F)(F)F)c1)CN1CCC2(C1)CS(=O)(=O)C2` (single isomer, unassigned) [Compound 126B], for which the inhibitory constant (Ki) on human EBP (setting [2]) amounted to 120 nM. For the same compound, the figures for the concentration giving a half-maximal response (EC50) (in experiment [1]; in the experiment with EpiSC-derived OPCs) were 14 nM and 230 nM, respectively.

As for `C[C@@H](Cc1ccc(C(F)F)cc1)CN1CCC2(C1)CS(=O)(=O)C2` (single isomer, unassigned) [Compound 128A], the Ki on human EBP (setting [2]) came to 56 nM. In addition, the results for the concentration giving a half-maximal response (EC50) (in experiment [1]; in the experiment on EpiSC-derived OPCs) were 23 nM and 370 nM, respectively.

On to `CC(C)(CN1CC[C@@]2(CCS(=O)(=O)C2)C1)Oc1ccc(C(F)(F)F)cc1` (single isomer, unassigned) [Compound 141A], for which the inhibition constant (Ki) at human EBP (setting [2]) stood at 44 nM. For the same compound, the figures for the 50% effective concentration (EC50) (in experiment [1]; with EpiSC-derived OPCs) were 5.5 nM and 21 nM, respectively.
